Laboratory results as given in PubChem BioAssay (NCI).
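Five concentrations, 48 hours, 96-well plates. At the TGI there is no net growth.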

Experiments:
Test in all cases: DTP human tumour cell line panel, 48 h
786-0 renal = tested on: 786-0 renal
A498 renal = tested on: A498 renal
A549 NSCLC = tested on: A549 NSCLC
ACHN renal = tested on: ACHN renal
BT-549 breast = tested on: BT-549 breast
CAKI-1 renal = tested on: CAKI-1 renal
CCRF-CEM leukemia = tested on: CCRF-CEM leukemia
COLO 205 colon = tested on: COLO 205 colon
DU-145 prostate = tested on: DU-145 prostate
EKVX NSCLC = tested on: EKVX NSCLC
HCC-2998 colon = tested on: HCC-2998 colon
HCT-116 colon = tested on: HCT-116 colon
HCT-15 colon = tested on: HCT-15 colon
HL-60(TB) leukemia = tested on: HL-60(TB) leukemia
HOP-62 NSCLC = tested on: HOP-62 NSCLC
HOP-92 NSCLC = tested on: HOP-92 NSCLC
HS 578T breast = tested on: HS 578T breast
HT29 colon = tested on: HT29 colon
IGROV1 ovarian = tested on: IGROV1 ovarian
K-562 leukemia = tested on: K-562 leukemia
KM12 colon = tested on: KM12 colon
LOX IMVI melanoma = tested on: LOX IMVI melanoma
M14 melanoma = tested on: M14 melanoma
MALME-3M melanoma = tested on: MALME-3M melanoma
MCF7 breast = tested on: MCF7 breast
MDA-MB-231 breast = tested on: MDA-MB-231 breast
MDA-MB-435 = tested on: MDA-MB-435
MDA-N = tested on: MDA-N
NCI-H23 lung = tested on: NCI-H23 lung
NCI-H460 lung = tested on: NCI-H460 lung
NCI-H522 lung = tested on: NCI-H522 lung
NCI/ADR-RES ovarian = tested on: NCI/ADR-RES ovarian
OVCAR-3 ovarian = tested on: OVCAR-3 ovarian
OVCAR-4 ovarian = tested on: OVCAR-4 ovarian
OVCAR-5 ovarian = tested on: OVCAR-5 ovarian
PC-3 prostate = tested on: PC-3 prostate
RPMI-8226 leukemia = tested on: RPMI-8226 leukemia
RXF 393 renal = tested on: RXF 393 renal
SF-268 CNS = tested on: SF-268 CNS
SF-295 CNS = tested on: SF-295 CNS
SF-539 CNS = tested on: SF-539 CNS
SK-MEL-2 melanoma = tested on: SK-MEL-2 melanoma
SK-MEL-28 melanoma = tested on: SK-MEL-28 melanoma
SK-MEL-5 melanoma = tested on: SK-MEL-5 melanoma
SK-OV-3 ovarian = tested on: SK-OV-3 ovarian
SN12C renal = tested on: SN12C renal
SNB-19 CNS = tested on: SNB-19 CNS
SNB-75 CNS = tested on: SNB-75 CNS
SR leukemia = tested on: SR leukemia
SW-620 colon = tested on: SW-620 colon
T-47D breast = tested on: T-47D breast
TK-10 renal = tested on: TK-10 renal
U251 CNS = tested on: U251 CNS
UACC-257 melanoma = tested on: UACC-257 melanoma
UACC-62 melanoma = tested on: UACC-62 melanoma
UO-31 renal = tested on: UO-31 renal
MOLT-4 leukemia = tested on: MOLT-4 leukemia
NCI-H226 lung = tested on: NCI-H226 lung
OVCAR-8 ovarian = tested on: OVCAR-8 ovarian

Measured: TGI

Nc1ccc2nc3ccc(N)cc3[n+](-c3ccccc3)c2c1
74.7 µM: MALME-3M melanoma
97.3 µM: HCT-116 colon
80.9 µM: OVCAR-5 ovarian
96.4 µM: SK-MEL-5 melanoma
26.9 µM: COLO 205 colon
75.9 µM: LOX IMVI melanoma
68 µM: UACC-257 melanoma
not listed: MOLT-4 leukemia | NCI-H226 lung | OVCAR-8 ovarian
> 100 µM: all other assays above

C=C1CCC2CC1[C@@H](C(=O)c1c[nH]c3ccccc13)NC2(C)C (stereo partly specified)
31 µM: HOP-92 NSCLC
32.4 µM: HCC-2998 colon
not listed: M14 melanoma | SK-OV-3 ovarian | SNB-19 CNS
> 37.5 µM: all other assays above

C=CCOC1=C(OCC=C)C(C2COC(C)(C)O2)OC1=O (stereo unspecified)
45.2 µM: NCI-H522 lung
83.3 µM: HOP-92 NSCLC
34.9 µM: CAKI-1 renal
> 100 µM: all other assays above
